Laboratory results: article PMC10938783, “A novel pan-PI3K inhibitor KTC1101 synergizes with anti-PD-1 therapy by targeting tumor suppression and immune activation” (Molecular Cancer, 2024)
Where two headings read alike, the source gives them in different places.

Key:
[1] = test system: kinase panel comprising 50 kinases; experiment: Kinase profiling, panel of 50 kinases; format: biochemical; conditions: 1 μM
Description: Procedures for the preparation of KTC1101 are described in supplemental data. To investigate the PI3K inhibitory efficacy of KTC1101, its impact on the kinase activity of PI3K isoforms was assessed using the Adapta kinase assay as previously reported. Initially, a dilution series of 2.5 µL KTC1101 or DMSO (control) was prepared and added to the respective wells of a 384-well plate. Subsequently, optimized 2.5 µL kinase solutions, including PIK3CA/PIK3R1, PIK3CB/PIK3R1, PIK3CG, and PIK3CD/PIK3R1, were introduced to each well. After adding the kinase solutions, 5 µL ATP and PIP2:PS lipid kinase substrate was introduced into each well and incubated for 1 h at room temperature. This step allows for the initiation and progression of the kinase reaction. Following the incubation, a detection solution (5 µL) was added to all the wells. This solution contained 30 mM EDTA to stop the kinase reaction, 6 nM Eu-labeled anti-ADP antibody, and a 3 × concentration of Alexa Fluor® 647 ADP tracer. The EDTA effectively terminates the kinase reaction, while the anti-ADP antibody and ADP tracer are crucial for the detection of ADP produced during the kinase reaction, which correlates with PI3K activity. […] Finally, the fluorescence of each well was measured using a Multi-Mode Microplate Reader (Spark, Tecan). […]

[2] = target: PI3Kα (PIK3CA/PIK3R1) (Homo sapiens, UniProt P42336); experiment: Adapta kinase assay; format: biochemical
PI3Kα (PIK3CA/PIK3R1), sequence (P42336 whole entry, canonical isoform): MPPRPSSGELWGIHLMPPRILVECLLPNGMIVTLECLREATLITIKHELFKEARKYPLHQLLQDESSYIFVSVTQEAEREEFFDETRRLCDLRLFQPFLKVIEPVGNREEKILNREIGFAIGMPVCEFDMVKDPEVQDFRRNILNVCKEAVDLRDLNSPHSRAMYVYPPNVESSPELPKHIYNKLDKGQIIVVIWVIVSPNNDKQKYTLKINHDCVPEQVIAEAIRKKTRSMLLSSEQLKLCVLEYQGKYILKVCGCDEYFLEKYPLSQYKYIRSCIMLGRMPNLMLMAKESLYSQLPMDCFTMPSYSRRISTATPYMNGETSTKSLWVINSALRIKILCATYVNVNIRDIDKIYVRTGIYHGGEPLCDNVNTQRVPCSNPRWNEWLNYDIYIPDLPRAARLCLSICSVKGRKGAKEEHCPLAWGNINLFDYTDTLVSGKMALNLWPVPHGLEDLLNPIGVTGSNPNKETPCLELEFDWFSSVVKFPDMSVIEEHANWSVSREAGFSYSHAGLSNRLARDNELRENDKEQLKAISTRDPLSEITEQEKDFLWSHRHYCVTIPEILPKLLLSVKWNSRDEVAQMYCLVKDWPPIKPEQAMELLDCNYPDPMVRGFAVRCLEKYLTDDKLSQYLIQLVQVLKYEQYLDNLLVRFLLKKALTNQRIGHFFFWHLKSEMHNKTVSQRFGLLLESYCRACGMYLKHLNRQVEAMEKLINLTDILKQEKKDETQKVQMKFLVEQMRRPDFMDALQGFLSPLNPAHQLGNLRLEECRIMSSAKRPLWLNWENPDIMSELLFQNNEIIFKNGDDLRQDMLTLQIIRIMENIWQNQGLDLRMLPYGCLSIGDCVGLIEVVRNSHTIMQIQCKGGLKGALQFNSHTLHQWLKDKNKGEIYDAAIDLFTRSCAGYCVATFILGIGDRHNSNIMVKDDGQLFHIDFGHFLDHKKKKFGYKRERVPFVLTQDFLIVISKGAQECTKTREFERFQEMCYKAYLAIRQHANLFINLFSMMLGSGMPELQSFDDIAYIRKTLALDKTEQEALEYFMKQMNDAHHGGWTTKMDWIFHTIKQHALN
PI3Kα (PIK3CA/PIK3R1), sequence (P27986 whole entry partner, canonical isoform): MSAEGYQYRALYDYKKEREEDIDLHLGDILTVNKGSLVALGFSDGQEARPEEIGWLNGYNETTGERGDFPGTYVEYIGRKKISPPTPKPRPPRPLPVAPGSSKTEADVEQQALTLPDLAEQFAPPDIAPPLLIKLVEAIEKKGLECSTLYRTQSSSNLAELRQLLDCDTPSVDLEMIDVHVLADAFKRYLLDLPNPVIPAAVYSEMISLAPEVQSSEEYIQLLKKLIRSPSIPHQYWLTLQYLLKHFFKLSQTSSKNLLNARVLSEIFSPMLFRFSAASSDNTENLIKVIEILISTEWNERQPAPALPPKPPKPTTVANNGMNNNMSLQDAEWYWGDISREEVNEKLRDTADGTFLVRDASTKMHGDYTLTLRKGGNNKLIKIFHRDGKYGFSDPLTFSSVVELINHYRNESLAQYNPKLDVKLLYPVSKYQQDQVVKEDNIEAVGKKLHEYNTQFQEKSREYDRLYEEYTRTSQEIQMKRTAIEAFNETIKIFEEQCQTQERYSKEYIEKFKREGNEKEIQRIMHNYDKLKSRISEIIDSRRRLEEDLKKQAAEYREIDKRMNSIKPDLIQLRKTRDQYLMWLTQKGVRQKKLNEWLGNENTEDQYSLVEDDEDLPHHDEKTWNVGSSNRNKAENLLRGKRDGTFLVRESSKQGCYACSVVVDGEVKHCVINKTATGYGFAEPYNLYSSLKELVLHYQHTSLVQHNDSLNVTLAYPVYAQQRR
Description: (§1) Procedures for the preparation of KTC1101 are described in supplemental data. To investigate the PI3K inhibitory efficacy of KTC1101, its impact on the kinase activity of PI3K isoforms was assessed using the Adapta kinase assay as previously reported. Initially, a dilution series of 2.5 µL KTC1101 or DMSO (control) was prepared and added to the respective wells of a 384-well plate. Subsequently, optimized 2.5 µL kinase solutions, including PIK3CA/PIK3R1, PIK3CB/PIK3R1, PIK3CG, and PIK3CD/PIK3R1, were introduced to each well. After adding the kinase solutions, 5 µL ATP and PIP2:PS lipid kinase substrate was introduced into each well and incubated for 1 h at room temperature. This step allows for the initiation and progression of the kinase reaction. Following the incubation, a detection solution (5 µL) was added to all the wells. This solution contained 30 mM EDTA to stop the kinase reaction, 6 nM Eu-labeled anti-ADP antibody, and a 3 × concentration of Alexa Fluor® 647 ADP tracer. The EDTA effectively terminates the kinase reaction, while the anti-ADP antibody and ADP tracer are crucial for the detection of ADP produced during the kinase reaction, which correlates with PI3K activity. The plate was then allowed to equilibrate for 30 min at room temperature, ensuring proper binding of the tracer and antibody to the generated ADP. Finally, the fluorescence of each well was measured using a Multi-Mode Microplate Reader (Spark, Tecan). To ascertain the selectivity of KTC1101 for PI3K isoforms and to rule out off-target effects, a kinase panel comprising 50 kinases was tested against KTC1101. This kinase profiling was conducted by Wuhan Heyan Biomedical Technology Co., Ltd.

[3] = target: PI3Kβ (PIK3CB/PIK3R1) (Homo sapiens, UniProt P42338); experiment: Adapta kinase assay; format: biochemical
PI3Kβ (PIK3CB/PIK3R1), sequence (P42338 whole entry): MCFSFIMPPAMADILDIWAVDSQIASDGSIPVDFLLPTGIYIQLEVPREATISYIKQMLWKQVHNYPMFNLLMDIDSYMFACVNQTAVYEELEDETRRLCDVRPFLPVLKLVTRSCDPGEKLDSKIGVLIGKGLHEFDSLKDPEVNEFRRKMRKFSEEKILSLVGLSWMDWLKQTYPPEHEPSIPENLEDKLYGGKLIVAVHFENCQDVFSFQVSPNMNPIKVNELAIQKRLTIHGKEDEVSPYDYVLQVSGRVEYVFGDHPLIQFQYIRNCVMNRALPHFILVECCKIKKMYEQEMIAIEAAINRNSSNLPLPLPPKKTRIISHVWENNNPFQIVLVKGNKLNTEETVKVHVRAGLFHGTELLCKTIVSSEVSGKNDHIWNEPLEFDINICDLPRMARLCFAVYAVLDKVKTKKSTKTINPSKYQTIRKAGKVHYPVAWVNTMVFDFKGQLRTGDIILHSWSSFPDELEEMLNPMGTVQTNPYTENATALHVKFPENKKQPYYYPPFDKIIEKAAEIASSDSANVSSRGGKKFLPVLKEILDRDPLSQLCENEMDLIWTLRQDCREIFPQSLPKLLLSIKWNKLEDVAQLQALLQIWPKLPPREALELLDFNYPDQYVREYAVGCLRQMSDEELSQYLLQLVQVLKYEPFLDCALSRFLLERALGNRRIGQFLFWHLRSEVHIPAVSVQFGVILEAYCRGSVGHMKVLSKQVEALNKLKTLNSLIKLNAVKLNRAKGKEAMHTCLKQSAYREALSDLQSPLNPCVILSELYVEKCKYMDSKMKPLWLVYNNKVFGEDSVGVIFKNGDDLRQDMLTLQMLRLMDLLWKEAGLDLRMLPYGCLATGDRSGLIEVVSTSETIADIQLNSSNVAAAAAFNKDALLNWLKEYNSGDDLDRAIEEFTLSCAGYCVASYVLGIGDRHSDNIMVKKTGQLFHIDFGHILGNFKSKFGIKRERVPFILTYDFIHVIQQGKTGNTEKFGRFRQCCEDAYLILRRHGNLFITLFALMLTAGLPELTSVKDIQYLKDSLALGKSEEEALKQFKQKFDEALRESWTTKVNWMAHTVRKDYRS
PI3Kβ (PIK3CB/PIK3R1), sequence (P27986 whole entry partner): as the sequence (P27986 whole entry partner, canonical isoform) above
Description: as §1

[4] = target: PI3Kδ (PIK3CD/PIK3R1) (Homo sapiens, UniProt O00329); experiment: Adapta kinase assay; format: biochemical
PI3Kδ (PIK3CD/PIK3R1), sequence (O00329 whole entry): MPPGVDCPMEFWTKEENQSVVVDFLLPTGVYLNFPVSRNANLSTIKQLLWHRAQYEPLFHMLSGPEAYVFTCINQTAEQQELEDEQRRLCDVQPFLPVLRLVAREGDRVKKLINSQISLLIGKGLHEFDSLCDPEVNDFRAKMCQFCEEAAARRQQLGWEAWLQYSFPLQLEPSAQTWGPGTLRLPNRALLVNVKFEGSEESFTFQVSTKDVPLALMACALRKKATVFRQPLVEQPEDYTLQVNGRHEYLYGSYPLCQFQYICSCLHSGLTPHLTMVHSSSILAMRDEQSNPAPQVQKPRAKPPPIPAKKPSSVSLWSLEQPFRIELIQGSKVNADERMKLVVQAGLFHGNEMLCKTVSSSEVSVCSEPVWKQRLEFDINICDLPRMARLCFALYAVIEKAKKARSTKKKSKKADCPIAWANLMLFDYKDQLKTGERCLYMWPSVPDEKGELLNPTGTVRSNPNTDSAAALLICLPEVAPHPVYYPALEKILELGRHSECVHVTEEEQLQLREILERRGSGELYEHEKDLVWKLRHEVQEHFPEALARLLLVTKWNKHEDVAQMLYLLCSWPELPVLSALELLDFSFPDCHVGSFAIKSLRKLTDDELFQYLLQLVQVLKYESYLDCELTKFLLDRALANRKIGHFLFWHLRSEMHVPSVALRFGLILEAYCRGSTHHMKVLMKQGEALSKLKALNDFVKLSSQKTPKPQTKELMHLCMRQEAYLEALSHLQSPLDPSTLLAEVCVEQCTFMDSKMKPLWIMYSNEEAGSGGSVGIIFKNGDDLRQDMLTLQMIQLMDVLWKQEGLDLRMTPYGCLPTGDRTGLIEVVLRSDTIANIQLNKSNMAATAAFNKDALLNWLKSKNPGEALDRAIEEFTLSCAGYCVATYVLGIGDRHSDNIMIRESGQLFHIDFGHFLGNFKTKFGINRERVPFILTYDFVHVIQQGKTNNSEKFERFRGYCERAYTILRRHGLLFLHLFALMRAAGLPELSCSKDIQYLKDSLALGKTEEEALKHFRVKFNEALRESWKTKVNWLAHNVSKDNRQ
PI3Kδ (PIK3CD/PIK3R1), sequence (P27986 whole entry partner): as the sequence (P27986 whole entry partner, canonical isoform) above
Description: as §1

[5] = target: PI3Kγ (PIK3CG) (Homo sapiens, UniProt P48736); experiment: Adapta kinase assay; format: biochemical
PI3Kγ (PIK3CG), sequence (P48736 whole entry): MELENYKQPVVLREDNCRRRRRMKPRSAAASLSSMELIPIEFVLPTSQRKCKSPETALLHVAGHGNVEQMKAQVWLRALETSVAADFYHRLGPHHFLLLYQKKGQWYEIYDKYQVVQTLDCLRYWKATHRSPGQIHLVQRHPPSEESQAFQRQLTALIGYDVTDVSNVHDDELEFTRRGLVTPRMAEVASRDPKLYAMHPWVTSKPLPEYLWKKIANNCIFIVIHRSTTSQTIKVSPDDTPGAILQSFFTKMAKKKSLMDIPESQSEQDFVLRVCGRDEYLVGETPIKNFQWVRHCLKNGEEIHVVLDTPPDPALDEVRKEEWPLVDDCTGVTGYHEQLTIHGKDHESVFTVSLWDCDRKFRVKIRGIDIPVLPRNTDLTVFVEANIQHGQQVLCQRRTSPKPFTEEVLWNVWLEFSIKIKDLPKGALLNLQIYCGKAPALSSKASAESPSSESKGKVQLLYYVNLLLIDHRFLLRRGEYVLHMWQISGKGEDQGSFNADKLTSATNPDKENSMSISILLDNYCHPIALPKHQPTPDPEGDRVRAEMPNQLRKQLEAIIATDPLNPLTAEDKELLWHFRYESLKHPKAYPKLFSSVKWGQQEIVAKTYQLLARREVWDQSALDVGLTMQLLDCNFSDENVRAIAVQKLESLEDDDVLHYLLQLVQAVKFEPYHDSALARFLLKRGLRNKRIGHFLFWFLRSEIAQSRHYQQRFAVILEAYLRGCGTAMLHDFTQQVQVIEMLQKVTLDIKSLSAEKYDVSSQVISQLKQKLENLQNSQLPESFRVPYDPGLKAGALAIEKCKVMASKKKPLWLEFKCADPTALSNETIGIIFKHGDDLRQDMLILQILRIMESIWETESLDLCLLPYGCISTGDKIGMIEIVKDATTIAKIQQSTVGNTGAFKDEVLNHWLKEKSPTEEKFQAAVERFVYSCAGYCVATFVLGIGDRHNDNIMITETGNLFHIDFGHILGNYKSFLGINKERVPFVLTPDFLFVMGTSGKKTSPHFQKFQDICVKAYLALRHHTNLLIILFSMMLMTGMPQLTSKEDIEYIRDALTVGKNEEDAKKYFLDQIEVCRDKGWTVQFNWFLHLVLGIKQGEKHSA
Description: as §1

[6] = test system: JFCR39 panel of 39 human tumor cell lines; experiment: JFCR39 panel growth inhibition, panel statistics; format: cell-based; conditions: for GI50: Homo sapiens
Description: (§2) JFCR39 drug discovery system was used to measure the growth inhibitory activities and identify the target of KTC1101. The JFCR39 panel consists of 39 cell lines seeded in 96-well plates. After 48-h treatment with KTC1101, cell growth was measured using the sulforhodamine B assay. […] The deviation of log GI50 for each cell line from the average log GI50 across the JFCR39 panel was plotted as a fingerprint. MG-MID (mean of Log GI50 values) represents the average log GI50 for all 39 cell lines. The most sensitive and least sensitive cell lines were identified by calculating the difference in their log GI50 values (Range) and the difference between the most sensitive cell line and the average GI50 on the JFCR39 panel (Delta). The fingerprint of KTC1101 was compared with the fingerprints of reference compounds in the database. The Pearson correlation coefficient (r) was calculated (n = 39).

[7] = test system: MKN-A; experiment: JFCR39 sulforhodamine B growth assay; format: cell-based; conditions: Homo sapiens, 48 h
Description: as §2

[8] = test system: SF-295; experiment: JFCR39 sulforhodamine B growth assay; format: cell-based; conditions: Homo sapiens, SF-295, 48 h
Description: as §2

[9] = test system: MDA-MB-231; experiment: JFCR39 sulforhodamine B growth assay; format: cell-based; conditions: Homo sapiens, MDA-MB-231, 48 h
Description: as §2

[10] = test system: HT-29; experiment: JFCR39 sulforhodamine B growth assay; format: cell-based; conditions: Homo sapiens, HT-29, 48 h
Description: as §2

[11] = test system: HCT-116; experiment: JFCR39 sulforhodamine B growth assay; format: cell-based; conditions: Homo sapiens, HCT-116, 48 h
Description: as §2

[12] = test system: MKN1; experiment: JFCR39 sulforhodamine B growth assay; format: cell-based; conditions: Homo sapiens, MKN-1; MKN1, 48 h
Description: as §2

[13] = test system: SNB-75; experiment: JFCR39 sulforhodamine B growth assay; format: cell-based; conditions: Homo sapiens, SNB-75, 48 h
Description: as §2

[14] = test system: DMS273; experiment: JFCR39 sulforhodamine B growth assay; format: cell-based; conditions: Homo sapiens, DMS-273; DMS273, 48 h
Description: as §2

[15] = test system: SK-OV-3; experiment: JFCR39 sulforhodamine B growth assay; format: cell-based; conditions: Homo sapiens, SK-OV-3, 48 h
Description: as §2

[16] = test system: RXF-631L; experiment: JFCR39 sulforhodamine B growth assay; format: cell-based; conditions: Homo sapiens, 48 h
Description: as §2

[17] = test system: OVCAR-5; experiment: JFCR39 sulforhodamine B growth assay; format: cell-based; conditions: Homo sapiens, OVCAR-5, 48 h
Description: as §2

[18] = test system: PC-3; experiment: JFCR39 sulforhodamine B growth assay; format: cell-based; conditions: Homo sapiens, PC-3, 48 h
Description: as §2

[19] = test system: DU-145; experiment: JFCR39 sulforhodamine B growth assay; format: cell-based; conditions: Homo sapiens, DU-145, 48 h
Description: as §2

[20] = test system: HBC-5; experiment: JFCR39 sulforhodamine B growth assay; format: cell-based; conditions: Homo sapiens, HBC5; HBC-5, 48 h
Description: as §2

[21] = test system: ACHN; experiment: JFCR39 sulforhodamine B growth assay; format: cell-based; conditions: Homo sapiens, 48 h
Description: as §2

[22] = test system: NCI-H226; experiment: JFCR39 sulforhodamine B growth assay; format: cell-based; conditions: Homo sapiens, NCI-H226, 48 h
Description: as §2

[23] = test system: B16 cells; experiment: Cell proliferation MTT assay; format: cell-based, mouse; conditions: B16 cells in vitro, 48 h
Description: (§3) Cell proliferation was measured by MTT assay as previously described. The cells were seeded in a volume of 200 μL/well in 96-well plates. The next day, cells were treated with DMSO or a series of concentrations of KTC1101. After a 48-h incubation period, 20 μL of MTT (5 mg/mL) was added to each well. After further incubation for 4 h at 37 °C, the absorbance at 490 nm was measured using an iMark microplate reader (BIO-RAD, Hercules, CA, USA).

[24] = test system: S24 cells; experiment: Cell proliferation MTT assay; format: cell-based, mouse; conditions: 48 h
Description: as §3

[25] = test system: B16 tumors; experiment: B16 syngeneic model in C57BL/6 mice; format: in vivo, mouse

With `COc1cc(N)cc2c1nc(C(F)F)n2-c1nc(N2CCCOCC2)nc(N2CCOCC2)n1` [KTC1101, 2-(difluoromethyl)-4-methoxy-1-(4-morpholino-6-(1,4-oxazepan-4-yl)-1,3,5-triazin-2-yl)-1H-benzo[d]imidazol-6-amine] the “inhibition rate, all four PI3K targets” value [1] was “greater than 90%”, the “inhibition rate, other kinases of the panel” value [1] was “less than 50%” and the IC50 [2] was 3.72 nM. The IC50 [3] was 36.3 nM, the IC50 [4] was 1.22 nM and the IC50 [5] was 17.1 nM. The GI50 ([6]; JFCR39 panel, read-out: mean GI50 across all 39 cell lines) was 23.4 nM, the GI50 ([6]; all 39 cell lines, read-out: MG-MID (mean of Log GI50 values) (converted)) was 23.4 nM and the “fold lower mean GI50 than Copanlisib” value ([6]; JFCR39 panel) was 5.7 fold. The “fold lower mean GI50 than ZSTK474” value ([6]; JFCR39 panel) was 13.7 fold, the GI50 [7] was 145 nM and the GI50 [8] was 14.8 nM. For the same compound, the GI50 [9] was 30.2 nM, the GI50 [10] was 61.7 nM and the GI50 [11] was 31.6 nM. The GI50 [12] was 10 nM, the GI50 [13] was 10 nM and the GI50 [14] was 11 nM. The GI50 [15] was 12.9 nM, the GI50 [16] was 15.5 nM and the GI50 [17] was 23.4 nM. The GI50 [18] was 15.8 nM, the GI50 [19] was 23.4 nM and the GI50 [20] was 14.5 nM. The GI50 [21] was 21.4 nM, the GI50 [22] was 16.6 nM and the anti-proliferative activity [23] was “strong anti-proliferative activity”. The sensitivity in vitro [24] was “showed sensitivity”, the “tumor growth over 14 days” value ([25]; B16, 50 mg/kg, daily) was “comparably suppressed tumor growth” and the mouse body weight ([25]; B16, 100 mg/kg 3 days on/4 days off and 50 mg/kg daily, 14 days) was “without significant changes in mouse body weight”. The “tumor growth over 14 days” value ([25]; B16, 100 mg/kg, 3 days on/4 days off) was “comparably suppressed tumor growth” and the mouse survival ([25]; B16, intermittent regimen 100 mg/kg 3 days on/4 days off vs continuous) was “notably prolonged mouse survival”.
